Test results reported in patent publication US20100022531A1, “NOVEL COMPOUNDS AS P2X7 MODULATORS AND USES THEREOF” (RENOVIS, INC., priority 2005, published 2010).

These compounds were tested against T1, P2X7 receptor (Homo sapiens, UniProt Q99572) (assay: Alternate method for IL-1β release assay (differentiated THP-1 cells, BzATP-stimulated, ELISA)). Conditions: P2X7, read-out: IL-1β % inhib @ 0.3 μM.
T1 construct: host or cells: THP-1 cells differentiated with LPS and IFN-γ
T1 sequence (Q99572 1-595): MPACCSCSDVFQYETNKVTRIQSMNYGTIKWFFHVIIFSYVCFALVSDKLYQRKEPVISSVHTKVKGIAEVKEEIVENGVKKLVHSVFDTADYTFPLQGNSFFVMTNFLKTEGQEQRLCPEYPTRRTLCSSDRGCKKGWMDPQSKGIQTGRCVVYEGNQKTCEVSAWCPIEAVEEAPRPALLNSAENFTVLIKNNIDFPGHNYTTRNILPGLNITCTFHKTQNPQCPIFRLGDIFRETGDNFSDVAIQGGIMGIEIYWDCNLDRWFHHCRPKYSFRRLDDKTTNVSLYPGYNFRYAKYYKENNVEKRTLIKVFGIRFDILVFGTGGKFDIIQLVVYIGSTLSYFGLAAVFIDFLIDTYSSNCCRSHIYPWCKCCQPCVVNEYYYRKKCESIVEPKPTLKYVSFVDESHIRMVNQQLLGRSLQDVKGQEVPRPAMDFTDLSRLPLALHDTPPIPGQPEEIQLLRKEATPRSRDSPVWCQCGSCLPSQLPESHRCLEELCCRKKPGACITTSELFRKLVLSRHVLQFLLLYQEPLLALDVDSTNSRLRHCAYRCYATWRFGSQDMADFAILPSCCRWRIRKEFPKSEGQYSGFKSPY
Assay type: cell-based
How it was run: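 After 16 h differentiation with 100 ng/mL LPS and 100 ng/mL IFN-γ plus a further 2 h LPS priming, THP-1 cells were pretreated 30 min with compound, then stimulated with 250 uM BzATP (final) for 45 min. Supernatant IL-1β measured by ELISA; percent inhibition from background-adjusted levels versus untreated cells.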
Work on O=C(CN1CCCCC1)N1CCc2c(ncnc2NCC23CC4CC(CC(C4)C2)C3)C1 [Compound 266] yielded an inhibition at 0.3 µM of 0 to 25%.

Same assay, conditions: P2X7; 0.1 μM compound (symbols + to ++++); read-out: IL-1β % inhib @ 0.1 μM
O=C(COc1ccc(OC(F)(F)F)cc1)N1CCc2c(ncnc2NCC23CC4CC(CC(C4)C2)C3)C1 [Compound 251, 1-{4-[(Adamantan-1-ylmethyl)-amino]-5,8-dihydro-6H-pyrido[3,4-d]pyrimidin-7-yl}-2-(4-trifluoromethoxy-phenoxy)-ethanone] was tested, and the inhibition at 0.1 µM was 0 to 25%.
In the case of FC12CC3CC(C1)CC(CNc1ncnc4c1CCN(Cc1ccccc1)C4)(C3)C2 [Compound 252], the inhibition at 0.1 µM is reported as over 75%.
Compound O=C(c1cccnc1)N1CCc2c(ncnc2NCC23CC4CC(CC(C4)C2)C3)C1 [Compound 257, 4-[(Adamantan-1-ylmethyl)-amino]-5,8-dihydro-6H-pyrido[3,4-d]pyrimidin-7-yl-pyridin-3-yl-methanone] has an inhibition at 0.1 µM of over 75%.
CN(CC(=O)N1CCc2c(ncnc2NCC23CC4CC(CC(C4)C2)C3)C1)Cc1ccccc1 [Compound 260] was tested, and the inhibition at 0.1 µM was over 75%.
O=C(c1cccnc1)N1CCc2c(ncnc2NCC23CC4CC(CC(F)(C4)C2)C3)C1 [Compound 322] was tested, and the inhibition at 0.1 µM was 25 to 50%.
In the case of Fc1ccc(CN2CCc3c(ncnc3NCC34CC5CC(CC(F)(C5)C3)C4)C2)c(F)c1 [Compound 323], the inhibition at 0.1 µM is reported as 50 to 75%.
Work on O=C(OCc1ccc(C(F)(F)F)cc1)N1CCc2c(ncnc2NCC23CC4CC(CC(C4)C2)C3)C1 [Compound 324] yielded an inhibition at 0.1 µM of 50 to 75%.
O=C(OCc1ccc(F)cc1F)N1CCc2c(ncnc2NCC23CC4CC(CC(C4)C2)C3)C1 [Compound 325] gave an inhibition at 0.1 µM of over 75%.
In the case of OC12CC3CC(C1)CC(CNc1ncnc4c1CCN(Cc1ccccc1)C4)(C3)C2 [Compound 326, 3-[(7-Benzyl-5,6,7,8-tetrahydro-pyrido[3,4-d]pyrimidin-4-ylamino)-methyl]-adamantan-1-ol], the inhibition at 0.1 µM is reported as over 75%.
For O=C(OCc1ccc(F)cc1)N1CCc2c(ncnc2NCC23CC4CC(CC(C4)C2)C3)C1 [Compound 327], the inhibition at 0.1 µM was 50 to 75%.
In the case of O=C(OCc1cccnc1)N1CCc2c(ncnc2NCC23CC4CC(CC(C4)C2)C3)C1 [Compound 328], the inhibition at 0.1 µM is reported as 50 to 75%.
CS(=O)(=O)c1ccc(COC(=O)N2CCc3c(ncnc3NCC34CC5CC(CC(C5)C3)C4)C2)cc1 [Compound 329] gave an inhibition at 0.1 µM of 50 to 75%.

Same assay, conditions: P2X7; 0.3 μM compound (symbols * to ****); read-out: IL-1β % inhib @ 0.3 μM
For O=C(c1cnn(-c2ccccc2)c1C(F)(F)F)N1CCc2c(ncnc2NCC23CC4CC(CC(C4)C2)C3)C1 [Compound 255], the inhibition at 0.3 µM was over 75%.
CN(C)CCN1CCN(CC(=O)N2CCc3c(ncnc3NCC34CC5CC(CC(C5)C3)C4)C2)CC1 [Compound 258] was tested, and the inhibition at 0.3 µM was 0 to 25%.
Work on O=C(CN1CCN(c2ccccc2)CC1)N1CCc2c(ncnc2NCC23CC4CC(CC(C4)C2)C3)C1 [Compound 259] yielded an inhibition at 0.3 µM of 50 to 75%.
O=C(CNC1CCN(Cc2ccccc2)CC1)N1CCc2c(ncnc2NCC23CC4CC(CC(C4)C2)C3)C1 [Compound 261] was tested, and the inhibition at 0.3 µM was 25 to 50%.
With O=C(CN1CCC(Cc2ccccc2)CC1)N1CCc2c(ncnc2NCC23CC4CC(CC(C4)C2)C3)C1 [Compound 264] the inhibition at 0.3 µM was 25 to 50%.
O=C(CN1CCN(CC(=O)N2CCc3c(ncnc3NCC34CC5CC(CC(C5)C3)C4)C2)CC1)N1CCOCC1 [Compound 267] showed an inhibition at 0.3 µM of 0 to 25%.
For CCN(CC(=O)N1CCc2c(ncnc2NCC2C3CC4CC(C3)CC2C4)C1)Cc1ccncc1 (stereo not drawn) [Compound 268], the inhibition at 0.3 µM was 50 to 75%.
For CN(CC(=O)N1CCc2c(ncnc2NCC2C3CC4CC(C3)CC2C4)C1)C1CCCCC1 (stereo not drawn) [Compound 269], the inhibition at 0.3 µM was 50 to 75%.
Compound O=C(CN1CCN(Cc2ccccc2)CC1)N1CCc2c(ncnc2NCC2C3CC4CC(C3)CC2C4)C1 (stereo not drawn) [Compound 271] has an inhibition at 0.3 µM of 0 to 25%.
Compound O=C(CN1CCOCC1)N1CCc2c(ncnc2NCC2C3CC4CC(C3)CC2C4)C1 (stereo not drawn) [Compound 272] has an inhibition at 0.3 µM of 0 to 25%.
Work on O=C(CN1CCc2ccccc2C1)N1CCc2c(ncnc2NCC2C3CC4CC(C3)CC2C4)C1 (stereo not drawn) [Compound 274] yielded an inhibition at 0.3 µM of 25 to 50%.
With O=C(CN1CCCCCC1)N1CCc2c(ncnc2NCC2C3CC4CC(C3)CC2C4)C1 (stereo not drawn) [Compound 275] the inhibition at 0.3 µM was 0 to 25%.
CN(C)CCCN(C)CC(=O)N1CCc2c(ncnc2NCC2C3CC4CC(C3)CC2C4)C1 (stereo not drawn) [Compound 276] showed an inhibition at 0.3 µM of 0 to 25%.
CN(CCC#N)CC(=O)N1CCc2c(ncnc2NCC2C3CC4CC(C3)CC2C4)C1 (stereo not drawn) [Compound 277] gave an inhibition at 0.3 µM of 0 to 25%.
Work on CCN1CCN(CC(=O)N2CCc3c(ncnc3NCC3C4CC5CC(C4)CC3C5)C2)CC1 (stereo not drawn) [Compound 278] yielded an inhibition at 0.3 µM of 25 to 50%.
In the case of CN(CCc1ccccn1)CC(=O)N1CCc2c(ncnc2NCC2C3CC4CC(C3)CC2C4)C1 (stereo not drawn) [Compound 279], the inhibition at 0.3 µM is reported as 50 to 75%.
Compound CCN(C)CC(=O)N1CCc2c(ncnc2NCC2C3CC4CC(C3)CC2C4)C1 (stereo not drawn) [Compound 282] has an inhibition at 0.3 µM of 0 to 25%.
Work on O=C(CN1CCC1)N1CCc2c(ncnc2NCC2C3CC4CC(C3)CC2C4)C1 (stereo not drawn) [Compound 283] yielded an inhibition at 0.3 µM of 0 to 25%.
For CN(CCc1ccccc1)CC(=O)N1CCc2c(ncnc2NCC2C3CC4CC(C3)CC2C4)C1 (stereo not drawn) [Compound 284], the inhibition at 0.3 µM was over 75%.
CC(C)N1CCN(CC(=O)N2CCc3c(ncnc3NCC3C4CC5CC(C4)CC3C5)C2)CC1 (stereo not drawn) [Compound 285] gave an inhibition at 0.3 µM of 0 to 25%.
Compound CCCCN(C)CC(=O)N1CCc2c(ncnc2NCC2C3CC4CC(C3)CC2C4)C1 (stereo not drawn) [Compound 288] has an inhibition at 0.3 µM of 50 to 75%.
In the case of CN1CCC(NCC(=O)N2CCc3c(ncnc3NCC3C4CC5CC(C4)CC3C5)C2)CC1 (stereo not drawn) [Compound 289], the inhibition at 0.3 µM is reported as 0 to 25%.
CC1CCN(CC(=O)N2CCc3c(ncnc3NCC3C4CC5CC(C4)CC3C5)C2)CC1 (stereo not drawn) [Compound 292] showed an inhibition at 0.3 µM of 25 to 50%.
O=C(CN1CCC(c2ccccc2)CC1)N1CCc2c(ncnc2NCC2C3CC4CC(C3)CC2C4)C1 (stereo not drawn) [Compound 294] showed an inhibition at 0.3 µM of 0 to 25%.
Work on CN(CC(=O)N1CCc2c(ncnc2NCC2C3CC4CC(C3)CC2C4)C1)Cc1ccco1 (stereo not drawn) [Compound 295] yielded an inhibition at 0.3 µM of 0 to 25%.
Work on COc1ccc(CN(C)CC(=O)N2CCc3c(ncnc3NCC3C4CC5CC(C4)CC3C5)C2)cc1OC (stereo not drawn) [Compound 296] yielded an inhibition at 0.3 µM of 0 to 25%.
Compound COc1ccc(CCN(C)CC(=O)N2CCc3c(ncnc3NCC3C4CC5CC(C4)CC3C5)C2)cc1OC (stereo not drawn) [Compound 297] has an inhibition at 0.3 µM of 0 to 25%.
Work on O=C(CN1CCC(N2CCOCC2)CC1)N1CCc2c(ncnc2NCC2C3CC4CC(C3)CC2C4)C1 (stereo not drawn) [Compound 299] yielded an inhibition at 0.3 µM of 25 to 50%.
For O=C(CN1CCC(C(F)(F)F)CC1)N1CCc2c(ncnc2NCC2C3CC4CC(C3)CC2C4)C1 (stereo not drawn) [Compound 300], the inhibition at 0.3 µM was 0 to 25%.
Work on O=C(CN1CCN(c2ncccn2)CC1)N1CCc2c(ncnc2NCC2C3CC4CC(C3)CC2C4)C1 (stereo not drawn) [Compound 301] yielded an inhibition at 0.3 µM of 0 to 25%.
O=C(CN1CCN(c2ncncn2)CC1)N1CCc2c(ncnc2NCC2C3CC4CC(C3)CC2C4)C1 (stereo not drawn) [Compound 302] was tested, and the inhibition at 0.3 µM was 25 to 50%.
O=C(CN1CCN(CCn2cccc2)CC1)N1CCc2c(ncnc2NCC2C3CC4CC(C3)CC2C4)C1 (stereo not drawn) [Compound 303] showed an inhibition at 0.3 µM of 25 to 50%.
Compound COCCN(C)CC(=O)N1CCc2c(ncnc2NCC2C3CC4CC(C3)CC2C4)C1 (stereo not drawn) [Compound 304] has an inhibition at 0.3 µM of 25 to 50%.
With CN(CC(=O)N1CCc2c(ncnc2NCC2C3CC4CC(C3)CC2C4)C1)Cc1ccc(Cl)cc1 (stereo not drawn) [Compound 306] the inhibition at 0.3 µM was 25 to 50%.
COc1cccc(CN(C)CC(=O)N2CCc3c(ncnc3NCC3C4CC5CC(C4)CC3C5)C2)c1 (stereo not drawn) [Compound 308] gave an inhibition at 0.3 µM of 0 to 25%.
Compound CCc1ccc(CN(C)CC(=O)N2CCc3c(ncnc3NCC3C4CC5CC(C4)CC3C5)C2)cc1 (stereo not drawn) [Compound 309] has an inhibition at 0.3 µM of 25 to 50%.
O=C(CN1CCC(F)(F)CC1)N1CCc2c(ncnc2NCC2C3CC4CC(C3)CC2C4)C1 (stereo not drawn) [Compound 310] gave an inhibition at 0.3 µM of 0 to 25%.
CN(CC(=O)N1CCc2c(ncnc2NCC2C3CC4CC(C3)CC2C4)C1)Cc1cccc(Cl)c1 (stereo not drawn) [Compound 311] showed an inhibition at 0.3 µM of 25 to 50%.
Compound CN(CC(=O)N1CCc2c(ncnc2NCC2C3CC4CC(C3)CC2C4)C1)Cc1ccc(F)cc1 (stereo not drawn) [Compound 312] has an inhibition at 0.3 µM of 0 to 25%.
With CC(C)N(C)CC(=O)N1CCc2c(ncnc2NCC2C3CC4CC(C3)CC2C4)C1 (stereo not drawn) [Compound 313] the inhibition at 0.3 µM was 0 to 25%.
Work on CN1CCC(N(C)CC(=O)N2CCc3c(ncnc3NCC3C4CC5CC(C4)CC3C5)C2)C1 (stereo not drawn) [Compound 314] yielded an inhibition at 0.3 µM of 0 to 25%.
In the case of C[C@@H](c1ccccc1)N(C)CC(=O)N1CCc2c(ncnc2NCC2C3CC4CC(C3)CC2C4)C1 (stereo partly drawn) [Compound 315], the inhibition at 0.3 µM is reported as over 75%.
COc1ccc(CN(C)CC(=O)N2CCc3c(ncnc3NCC3C4CC5CC(C4)CC3C5)C2)cc1 (stereo not drawn) [Compound 316] gave an inhibition at 0.3 µM of 25 to 50%.
In the case of CN(CC(=O)N1CCc2c(ncnc2NCC2C3CC4CC(C3)CC2C4)C1)Cc1ccc(C(F)(F)F)cc1 (stereo not drawn) [Compound 317], the inhibition at 0.3 µM is reported as 25 to 50%.
Work on Cc1ccc(CN(C)CC(=O)N2CCc3c(ncnc3NCC3C4CC5CC(C4)CC3C5)C2)cc1 (stereo not drawn) [Compound 318] yielded an inhibition at 0.3 µM of 25 to 50%.
CN(CC(=O)N1CCc2c(ncnc2NCC2C3CC4CC(C3)CC2C4)C1)Cc1ccncc1 (stereo not drawn) [Compound 319] was tested, and the inhibition at 0.3 µM was 25 to 50%.
With CN(CC(=O)N1CCc2c(ncnc2NCC2C3CC4CC(C3)CC2C4)C1)Cc1cccnc1 (stereo not drawn) [Compound 320] the inhibition at 0.3 µM was 25 to 50%.
